The subject of this assay is REPTOR. Description: REPTOR localization in adult enterocytes after rapamycin treatment, detected with nanobody-GFP. Type of assay: in vivo, Drosophila. Conditions: rapamycin 50 µM in food, 15 hr; adult enterocytes co-expressing VHH05-REPTOR-127D01 and Nb127D01-GFP or NbVHH05-GFP; confocal imaging. From the text: To address whether NanoTagged POIs can be detected in vivo, we generated UAS-VHH05-REPTOR-127D01 flies. A previous study has shown that in S2 cells, the transcription factor REPTOR is enriched in the cytoplasm under normal conditions but translocates into the nucleus upon rapamycin treatment ([Tiebe et al., 2015]). To test whether the changes in REPTOR localization can be detected using the nanobodies, we co-expressed NanoTagged REPTOR along with Nb127D01-GFP or NbVHH05-GFP specifically in adult enterocytes (ECs). In the absence of a NanoTagged POI, Nb127D01-GFP and NbVHH05-GFP were detected in both the cytoplasm and nuclei (Figure 5G1). In contrast, when co-expressed with NanoTagged REPTOR, the nanobody-GFP signals were enriched in the cytoplasm of ECs under normal food conditions (Figure 5H and J). […] Similar changes were absent from ECs that express Nb127D01-GFP or NbVHH05-GFP alone (Figure 5G1).
For rapamycin treatment, rapamycin (LC Laboratories, R-5000) was dissolved in DMSO and mixed into the media when preparing food vials. The rapamycin dose was 50 µM. […]

SMILES strings stand for the structures.

As to `CO[C@H]1C[C@@H]2CC[C@@H](C)[C@@](O)(O2)C(=O)C(=O)N2CCCC[C@H]2C(=O)O[C@H]([C@H](C)C[C@@H]2CC[C@@H](O)[C@H](OC)C2)CC(=O)[C@H](C)/C=C(\C)[C@@H](O)[C@@H](OC)C(=O)[C@H](C)C[C@H](C)/C=C/C=C/C=C/1C` [rapamycin, Rapamycin], the REPTOR subcellular localization result is reported as “leads to translocation of REPTOR into the nucleus”.

Source of the values: paper PMC8853664, “Protein visualization and manipulation in Drosophila through the use of epitope tags recognized by nanobodies” (eLife, 2022).
